Data on 1 molecule can be found in US11642419B2, “Compositions and methods for treating cardiovascular related disorders” (The Regents of the University of Michigan, priority 2015, dated 2023).

SMILES strings stand for the structures.

The test system of series [1] is ABCG1. The series can be described thus: qRT-PCR of ABCG1 in blood monocytes of treated apoE−/− mice. The settings on record: 1.5 mg/kg TO901317 i.p., three times per week, 6 weeks, FIG. 11. The series is classed as in vivo. On the procedure:
(§1) The effect of TO901317-encapsulated sHDL on target gene expression in monocytes from apoE^−/− mice was also investigated. Six-week-old male apoE^−/− mice were place on atherogenic high fat diet (HFD) for 12 weeks to induce atherosclerotic lesion formation. Mice were randomly divided into five groups, and each group was treated with intraperitoneal injections of the following regimens with an equivalent dose of 1.5 mg/kg entrapped TO901317: 1) PBS, 2) DMSO, 3) TO901317 dissolved in dimethyl sulfoxide (DMSO) (free TO901317), 4) sHDL nanoparticles, or 5) TO901317-encapsulated sHDL particles. The mice were treated for 6 weeks (three times per week, on Monday, Wednesday and Friday). The monocytes from the blood were isolated and the expression of ABCA1 and ABCG1 was detected by qRT-PCR as described in FIG. 5.
(In qPCR the cycle at which signal appears reflects the starting amount.)

A short description of series [2]: Plasma lipids in apoE-deficient mice. Type of series: in vivo. As to conditions: apoE-deficient mice on HFD, i.p., three times per week, 6 weeks, FIG. 22. On the procedure: Six-week-old male apoE^−/− mice were place on HFD for 6 weeks to induce atherosclerotic lesion formation. Mice were randomized into 5 groups and received intraperitoneal injection with 1) PBS, 2) DMSO, 3) CD3254 dissolved in dimethyl sulfoxide (DMSO) (free CD3254, at 0.1 mg/kg), 4) sHDL nanoparticles, or 5) CD3254-encapsulated sHDL particles with a dose of 0.1 mg/kg of CD3254. The mice were treated for 6 weeks (three times per week, on Monday, Wednesday and Friday). Direct LDL-cholesterol (LDL-c), direct HDL-cholesterol (HDL-c), and enzymatic-colorimetric assays used to determine plasma total cholesterol (TC) and triglycerides (TG) were carried out at the Chemistry Laboratory of the Michigan Diabetes Research and Training Center.

A short description of series [3]: Liver tissue triglyceride in apoE−/− mice. The series is classed as in vivo. As to conditions: 1.5 mg/kg TO901317 i.p., three times per week, 6 weeks, FIG. 12. On the procedure:
(§2) Six-week-old male apoE^−/− mice were place on atherogenic high fat diet (HFD) for 12 weeks to induce atherosclerotic lesion formation. Mice were randomly divided into five groups, and each group was treated with intraperitoneal injections of the following regimens with an equivalent dose of 1.5 mg/kg entrapped TO901317: 1) PBS, 2) DMSO, 3) TO901317 dissolved in dimethyl sulfoxide (DMSO) (free TO901317), 4) sHDL nanoparticles, or 5) TO901317-encapsulated sHDL particles. The mice were treated for 6 weeks (three times per week, on Monday, Wednesday and Friday). Liver tissue triglyceride concentrations were measured using a Triglyceride Quantification Kit (Cayman). Fifty mg of liver was homogenized in a 5% NP-40 buffer, and assay was performed according to manufacturer's directions.

Series [4] has as its system SREBP1c. The series can be described thus: qRT-PCR of SREBP1c expression in the liver of C57BL/6J mice. Type of series: in vivo. The settings on record: liver tissues from FIG. 8, FIG. 9. On the procedure:
To visualize whether sHDL can deliver its cargo to the plaque efficiently, a lipophilic near-infrared fluorescent dye, DiD, was incorporated into sHDL. […] The DiD-labeled sHDL nanoparticles were administrated by tail vein injection at a dose of 100 μg DiD and 10 mg/Kg sHDL to a murine atherosclerosis model. 24 hours post injection, animals were sacrificed and aortas were removed. DiD fluorescence associated with aortas were analyzed using the Xenogen IVIS optical imaging system. […] The side effects of different LXR agonist formulations were assessed.
FIGS. 8A and 8B show the effects of TO901317-encapsulated sHDL particles on plasma lipids in C57BL/6J Mice. C57BL/6J wild type mice were divided into 8 groups and treated with DMSO, TO901317 at 0.5 mg/kg, TO901317 at 1.5 mg/kg, TO901317 at 10 mg/kg, or sHDL blank particles, TO901317-encapsulated sHDL particles with TO901317 at 0.5 mg/kg, TO901317-encapsulated sHDL particles with TO901317 at 1.5 mg/kg, TO901317-encapsulated sHDL particles with TO901317 at 10 mg/kg via intraperitoneal injection. Twenty-four hours later, collected plasma and liver tissues were stored at −80° C. until processed. […]

Series [5] concerns ABCG1. Put plainly: qRT-PCR of ABCG1 expression in J774.1 macrophages. The series is classed as cell-based, murine. The settings on record: FIG. 3D. On the procedure: (§3) Incorporation of LXR agonist into sHDL is the first and most important step for all subsequent studies. Phospholipids, apoA-I mimetic peptide (22A) and LXR agonist TO901317 (TO) were hydrated in an aqueous solution and the sHDL nanoparticles were formed after 3 cycles of thermal cycling between 25 and 50° C. (see, e.g., Di Bartolo, B. A.; et al., Atherosclerosis 2011, 217 (2), 395-400; Dasseux, J.-L. Peptide/lipid complex formation by co-lyophilization. 2001). The homogeneity of the size distribution was confirmed by gel permeation chromatography (GPC) and scanning electron microscopy (SEM) (FIG. 3A-B). The average particle size of sHDL was 6-14 nm (e.g., 8-10 nm) as determined by dynamic light scattering using a Malvern Nanosizer. […]
(§4) In macrophages, LXRs control transcription of several genes involved in the cholesterol efflux pathway, including ABCA1 and ABCG1. To examine the ability of TO901317-encapsulated sHDL particles to activate LXR-target genes, J774.1 murine macrophage cells were incubated with sHDL blank particles or TO901317-encapsulated sHDL particles (TO901317 at 10^−6M) for 4 hours and the expression of both genes were measured using quantitative real-time PCR (qRT-PCR). […] The resulting cDNA was amplified with appropriate primers using power SYBR Green PCR Master Mix and analyzed on a CFX real-time PCR system (Bio-Rad). […]

Series [6] relates to ABCA1. Put plainly: qRT-PCR of ABCA1 expression in J774.1 macrophages. The settings on record: FIG. 3C. Type of series: cell-based, murine. On the procedure: as §3, §4
In series [7] the test system is SREBP1c. Put plainly: qRT-PCR of SREBP1c in the liver of apoE−/− mice. The series is classed as in vivo. The settings on record: liver tissues from FIG. 12, FIG. 13. On the procedure:
as §2
LXR ligands have been implicated in triggering induction of the lipogenic pathway via activation of SREBP-1c in the liver, which leads to the adverse effects of steatosis and hypertriglyceridemia. The liver tissues from FIG. 12 were used to detect the expression of SREBP1c and Fatty acid synthase (FAS) using qRT-PCR as described in FIG. 5.

A short description of series [8]: Plasma lipids in C57BL/6J mice. Type of series: in vivo. The settings on record: TO901317 0.5, 1.5, 10 mg/kg intraperitoneal, 24 hours later, FIG. 8. On the procedure: FIGS. 8A and 8B show the effects of TO901317-encapsulated sHDL particles on plasma lipids in C57BL/6J Mice. C57BL/6J wild type mice were divided into 8 groups and treated with DMSO, TO901317 at 0.5 mg/kg, TO901317 at 1.5 mg/kg, TO901317 at 10 mg/kg, or sHDL blank particles, TO901317-encapsulated sHDL particles with TO901317 at 0.5 mg/kg, TO901317-encapsulated sHDL particles with TO901317 at 1.5 mg/kg, TO901317-encapsulated sHDL particles with TO901317 at 10 mg/kg via intraperitoneal injection. Twenty-four hours later, collected plasma and liver tissues were stored at −80° C. until processed. Direct LDL-cholesterol (LDL-c), direct HDL-cholesterol (HDL-c), and enzymatic-colorimetric assays used to determine plasma total cholesterol (TC) and triglycerides (TG) were carried out at the Chemistry Laboratory of the Michigan Diabetes Research and Training Center.

The subject of series [9] is ABCA1. Put plainly: qRT-PCR of ABCA1 in blood monocytes of treated apoE−/− mice. Type of series: in vivo. As to conditions: 1.5 mg/kg TO901317 i.p., three times per week, 6 weeks, FIG. 11. On the procedure: as §1

In the case of `O=S(=O)(c1ccccc1)N(CC(F)(F)F)c1ccc(C(O)(C(F)(F)F)C(F)(F)F)cc1` [TO901317], the “ABCG1 expression in monocytes (qRT-PCR)” value in series [1] is “activated the expression”. The “plasma TG levels” value in series [2] and in series [8] was “significantly elevated” in each case. Besides, in series [3], the “triglyceride accumulation in the liver” value is “significantly induced the accumulation of triglyceride”. For the same molecule, the “expression of SREBP1c in the liver (qRT-PCR)” value in series [4] and in series [7] was “activated SREBP1c” in each case. Besides, in [5], the “ABCG1 expression (qRT-PCR)” value was “upregulated”. For the same molecule, the “ABCA1 expression (qRT-PCR)” value in [6] was “upregulated”. The “ABCA1 expression in monocytes (qRT-PCR)” value in [9] is given as “activated the expression”.
